# US9233983B2, “Substituted hetero-bicyclic compounds, compositions and medicinal applications thereof” (ADVINUS THERAPEUTICS LIMITED, priority 2012, dated 2016)
# Molecular target: human Bruton's Tyrosine Kinase (Btk) (Homo sapiens (Human), UniProt Q06187)
# Assay: Recombinant Human Bruton's Tyrosine Kinase (Btk) Inhibition Assay (HTRF KinEASE-TK)
# Format: biochemical
# Details: 20 ng/ml rhBtk, 77 μM ATP (KM), 1 μM TK-Biotin substrate, 90 min; read-out: hBTK IC50
# Chain of human Bruton's Tyrosine Kinase (Btk) (Q06187 whole entry): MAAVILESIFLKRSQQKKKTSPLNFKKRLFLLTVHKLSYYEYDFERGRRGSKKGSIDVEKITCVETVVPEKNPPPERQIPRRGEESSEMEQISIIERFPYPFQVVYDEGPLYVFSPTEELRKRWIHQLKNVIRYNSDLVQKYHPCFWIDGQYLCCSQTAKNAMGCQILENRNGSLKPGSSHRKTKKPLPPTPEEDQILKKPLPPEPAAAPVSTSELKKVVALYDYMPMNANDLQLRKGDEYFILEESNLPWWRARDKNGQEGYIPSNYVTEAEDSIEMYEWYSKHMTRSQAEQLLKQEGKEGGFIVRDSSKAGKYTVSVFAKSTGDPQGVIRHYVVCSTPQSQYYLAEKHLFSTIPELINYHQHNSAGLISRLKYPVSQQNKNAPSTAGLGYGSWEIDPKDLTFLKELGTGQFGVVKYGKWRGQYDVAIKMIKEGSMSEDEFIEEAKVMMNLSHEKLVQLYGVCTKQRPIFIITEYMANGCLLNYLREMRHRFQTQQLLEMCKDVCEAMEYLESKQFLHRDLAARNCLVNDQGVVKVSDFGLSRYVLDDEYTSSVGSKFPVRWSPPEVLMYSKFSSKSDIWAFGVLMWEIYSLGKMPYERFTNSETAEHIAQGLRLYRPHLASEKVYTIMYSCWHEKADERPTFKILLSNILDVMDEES
row,IC50,SMILES
1,> 1 µM,"Cc1c(-c2ncnc3[nH]c(-c4ccc(C(=O)NCC(F)(F)F)cc4)cc23)cccc1N1CCOc2cc(C3CC3)ccc2C1=O [Example K-7, 4-[4-[3-(8-cyclopropyl-5-oxo-2,3-dihydro-1,4-benzoxazepin-4-yl)-2-methyl-phenyl]-7H-pyrrolo[2,3-d]pyrimidin-6-yl]-N-(2,2,2-trifluoroethyl)benzamide]"
2,0.36 µM,"Cc1c(-c2ncnc3[nH]c(-c4ccc(C(=O)N5CC(O)C5)cc4)cc23)cccc1N1CCOc2cc(C3CC3)ccc2C1=O [Example K-8, 8-cyclopropyl-4-[3-[6-[4-(3-hydroxyazetidine-1-carbonyl)phenyl]-7H-pyrrolo[2,3-d]pyrimidin-4-yl]-2-methyl-phenyl]-2,3-dihydro-1,4-benzoxazepin-5-one]"
3,0.137 µM,"Cc1c(-c2ncnc3[nH]c(-c4ccc(C(=O)N5CCCC5)cc4)cc23)cccc1N1CCOc2cc(C3CC3)ccc2C1=O [Example K-9, 8-cyclopropyl-4-[2-methyl-3-[6-[4-(pyrrolidine-1-carbonyl)phenyl]-7H-pyrrolo[2,3-d]pyrimidin-4-yl]phenyl]-2,3-dihydro-1,4-benzoxazepin-5-one]"
4,0.233 µM,"COC1CCN(C(=O)c2ccc(-c3cc4c(-c5cccc(N6CCOc7cc(C8CC8)ccc7C6=O)c5C)ncnc4[nH]3)cc2)CC1 [Example K-10, 8-cyclopropyl-4-[3-[6-[4-(4-methoxypiperidine-1-carbonyl)phenyl]-7H-pyrrolo[2,3-d]pyrimidin-4-yl]-2-methyl-phenyl]-2,3-dihydro-1,4-benzoxazepin-5-one]"
5,0.162 µM,"COC1CN(C(=O)c2ccc(-c3cc4c(-c5cccc(N6CCOc7cc(C8CC8)ccc7C6=O)c5C)ncnc4[nH]3)cc2)C1 [Example K-11, 8-cyclopropyl-4-[3-[6-[4-(3-methoxyazetidine-1-carbonyl)phenyl]-7H-pyrrolo[2,3-d]pyrimidin-4-yl]-2-methyl-phenyl]-2,3-dihydro-1,4-benzoxazepin-5-one]"
6,0.114 µM,"Cc1c(-c2ncnc3[nH]c(-c4ccc(C(=O)N5CCCC5C(=O)O)cc4)cc23)cccc1N1CCOc2cc(C3CC3)ccc2C1=O (centres unmarked) [Example K-12, 1-[4-[4-[3-(8-cyclopropyl-5-oxo-2,3-dihydro-1,4-benzoxazepin-4-yl)-2-methyl-phenyl]-7H-pyrrolo[2,3-d]pyrimidin-6-yl]benzoyl]pyrrolidine-2-carboxylic acid]"
7,0.133 µM,"Cc1c(-c2ncnc3[nH]c(-c4ccc(C(=O)N5CCCC(C(=O)O)C5)cc4)cc23)cccc1N1CCOc2cc(C3CC3)ccc2C1=O (centres unmarked) [Example K-13, 1-[4-[4-[3-(8-cyclopropyl-5-oxo-2,3-dihydro-1,4-benzoxazepin-4-yl)-2-methyl-phenyl]-7H-pyrrolo[2,3-d]pyrimidin-6-yl]benzoyl]piperidine-3-carboxylic acid]"
8,> 1 µM,"Cc1c(-c2ncnc3[nH]c(-c4ccc(C(=O)N5CCC(C(=O)O)CC5)cc4)cc23)cccc1N1CCOc2cc(C3CC3)ccc2C1=O [Example K-14, 1-[4-[4-[3-(8-cyclopropyl-5-oxo-2,3-dihydro-1,4-benzoxazepin-4-yl)-2-methyl-phenyl]-7H-pyrrolo[2,3-d]pyrimidin-6-yl]benzoyl]piperidine-4-carboxylic acid]"
9,0.13 µM,"Cc1c(-c2ncnc3[nH]c(-c4ccc(C(=O)N5CCOCC5)cc4)cc23)cccc1N1CCc2cc(C3CC3)ccc2C1=O [Example K-15, 6-cyclopropyl-2-[2-methyl-3-[6-[4-(morpholine-4-carbonyl)phenyl]-7H-pyrrolo[2,3-d]pyrimidin-4-yl]phenyl]-3,4-dihydroisoquinolin-1-one]"
10,0.041 µM,"Cc1c(-c2ncnc3[nH]c(-c4ccc(C(=O)N5CC(O)C5)cc4)cc23)cccc1N1CCc2cc(C3CC3)ccc2C1=O [Example K-17, 6-cyclopropyl-2-[3-[6-[4-(3-hydroxyazetidine-1-carbonyl)phenyl]-7H-pyrrolo[2,3-d]pyrimidin-4-yl]-2-methyl-phenyl]-3,4-dihydroisoquinolin-1-one]"
11,0.208 µM,"Cc1c(-c2ncnc3[nH]c(-c4ccc(C(=O)N5CCN(C)CC5)cc4)cc23)cccc1N1CCc2cc(C3CC3)ccc2C1=O [Example K-18, 6-cyclopropyl-2-[2-methyl-3-[6-[4-(4-methylpiperazine-1-carbonyl)phenyl]-7H-pyrrolo[2,3-d]pyrimidin-4-yl]phenyl]-3,4-dihydroisoquinolin-1-one]"
12,> 1 µM,"Cc1c(-c2ncnc3[nH]c(-c4ccc(C(=O)N5CCN(C)CC5)cc4)cc23)cccc1N1CCc2cc(C3CC3)ccc2C1=O [Example K-21, 6-cyclopropyl-2-[2-methyl-3-[6-[4-(4-methylpiperazine-1-carbonyl)phenyl]-7H-pyrrolo[2,3-d]pyrimidin-4-yl]phenyl]-3,4-dihydroisoquinolin-1-one]"
13,0.043 µM,"CC1(O)CN(C(=O)c2ccc(-c3cc4c(-c5cccc(N6CCOc7cc(C8CC8)cc(F)c7C6=O)c5CO)ccnc4[nH]3)nc2)C1 [Example L-4, 8-cyclopropyl-6-fluoro-4-[2-(hydroxymethyl)-3-[2-[5-(3-hydroxy-3-methyl-azetidine-1-carbonyl)-2-pyridyl]-1H-pyrrolo[2,3-b]pyridin-4-yl]phenyl]-2,3-dihydro-1,4-benzoxazepin-5-one]"
14,> 1 µM,"Cc1c(-c2ncnc3[nH]c(-c4ccccc4)cc23)cccc1N1CCOc2cc(C3CC3)ccc2C1=O [Example M-1, 8-cyclopropyl-4-[2-methyl-3-(6-phenyl-7H-pyrrolo[2,3-d]pyrimidin-4-yl)phenyl]-2,3-dihydro-1,4-benzoxazepin-5-one]"
15,> 1 µM,"Cc1c(-c2ncnc3[nH]c(-c4ccccc4)cc23)cccc1N1CCc2cc(C3CC3)ccc2C1=O [Example M-2, 6-cyclopropyl-2-[2-methyl-3-(6-phenyl-7H-pyrrolo[2,3-d]pyrimidin-4-yl)phenyl]-3,4-dihydroisoquinolin-1-one]"
16,> 1 µM,"Cc1c(-c2ncnc3[nH]c(-c4ccc(N5CCOCC5)cc4)cc23)cccc1N1CCOc2cc(C3CC3)ccc2C1=O [Example M-3, 8-cyclopropyl-4-[2-methyl-3-[6-(4-morpholinophenyl)-7H-pyrrolo[2,3-d]pyrimidin-4-yl]phenyl]-2,3-dihydro-1,4-benzoxazepin-5-one]"
17,0.181 µM,"Cc1c(-c2nc(N)nc3[nH]c(-c4ccc(N5CCOCC5)nc4)cc23)cccc1N1CCOc2cc(C3CC3)ccc2C1=O [Example N-2, 4-[3-[2-amino-6-(6-morpholino-3-pyridyl)-7H-pyrrolo[2,3-d]pyrimidin-4-yl]-2-methyl-phenyl]-8-cyclopropyl-2,3-dihydro-1,4-benzoxazepin-5-one]"
18,0.272 µM,"Cc1c(-c2ncnc3[nH]c(C4=CCN(CCCO)CC4)cc23)cccc1N1CCOc2cc(C3CC3)ccc2C1=O [Example P-1, 8-cyclopropyl-4-[3-[6-[1-(3-hydroxypropyl)-3,6-dihydro-2H-pyridin-4-yl]-7H-pyrrolo[2,3-d]pyrimidin-4-yl]-2-methyl-phenyl]-2,3-dihydro-1,4-benzoxazepin-5-one]"
19,0.611 µM,"Cc1c(-c2ncnc3[nH]c(C4=CCN(CCO)CC4)cc23)cccc1N1CCOc2cc(C3CC3)ccc2C1=O [Example P-2, 8-cyclopropyl-4-[3-[6-[1-(2-hydroxyethyl)-3,6-dihydro-2H-pyridin-4-yl]-7H-pyrrolo[2,3-d]pyrimidin-4-yl]-2-methyl-phenyl]-2,3-dihydro-1,4-benzoxazepin-5-one]"
20,> 1 µM,"Cc1c(-c2ncnc3[nH]c(C4CCN(CCCO)CC4)cc23)cccc1N1CCOc2cc(C3CC3)ccc2C1=O [Example P-3, 8-cyclopropyl-4-[3-[6-[1-(3-hydroxypropyl)-4-piperidyl]-7H-pyrrolo[2,3-d]pyrimidin-4-yl]-2-methyl-phenyl]-2,3-dihydro-1,4-benzoxazepin-5-one]"
21,> 1 µM,"Cc1c(-c2ncnc3[nH]c(C4=CCCNC4)cc23)cccc1N1CCOc2cc(C3CC3)ccc2C1=O [Example P-4, 8-cyclopropyl-4-[2-methyl-3-[6-(1,2,3,6-tetrahydropyridin-5-yl)-7H-pyrrolo[2,3-d]pyrimidin-4-yl]phenyl]-2,3-dihydro-1,4-benzoxazepin-5-one]"
22,0.082 µM,"CN1CCN(Cc2ccc(-c3cc4c(-c5cccc(N6CCOc7cc(C8CC8)ccc7C6=O)c5)c(C#N)cnc4[nH]3)cc2)CC1 [Example P-6, 4-[3-(8-cyclopropyl-5-oxo-2,3-dihydro-1,4-benzoxazepin-4-yl)phenyl]-2-[4-[(4-methylpiperazin-1-yl)methyl]phenyl]-1H-pyrrolo[2,3-b]pyridine-5-carbonitrile]"
23,0.046 µM,"O=C(O)c1ccc(-c2cc3c(-c4cccc(N5CCOc6cc(C7CC7)ccc6C5=O)c4CO)ccnc3[nH]2)nc1 [Example P-7, 6-[4-[3-(8-cyclopropyl-5-oxo-2,3-dihydro-1,4-benzoxazepin-4-yl)-2-(hydroxymethyl)phenyl]-1H-pyrrolo[2,3-b]pyridin-2-yl]pyridine-3-carboxylic acid]"
24,0.025 µM,"O=C1c2ccc(C3CC3)cc2OCCN1c1cccc(-c2ccnc3[nH]c(-c4ccc(C(O)CO)cc4)cc23)c1CO (centres unmarked) [Example P-8, 8-cyclopropyl-4-[3-[2-[4-(1,2-dihydroxyethyl)phenyl]-1H-pyrrolo[2,3-b]pyridin-4-yl]-2-(hydroxymethyl)phenyl]-2,3-dihydro-1,4-benzoxazepin-5-one]"
25,0.01 µM,"CS(=O)(=O)N1CC=C(c2cc3c(-c4cccc(N5CCOc6cc(C7CC7)cc(F)c6C5=O)c4CO)ccnc3[nH]2)CC1 [Example P-11, 8-cyclopropyl-6-fluoro-4-[2-(hydroxymethyl)-3-[2-(1-methylsulfonyl-3,6-dihydro-2H-pyridin-4-yl)-1H-pyrrolo[2,3-b]pyridin-4-yl]phenyl]-2,3-dihydro-1,4-benzoxazepin-5-one]"
26,0.022 µM,"O=C1c2c(F)cc(C3CC3)cc2OCCN1c1cccc(-c2ccnc3[nH]c(C4=CCN(C5COC5)CC4)cc23)c1CO [Example P-12, 8-cyclopropyl-6-fluoro-4-[2-(hydroxymethyl)-3-[2-[1-(oxetan-3-yl)-3,6-dihydro-2H-pyridin-4-yl]-1H-pyrrolo[2,3-b]pyridin-4-yl]phenyl]-2,3-dihydro-1,4-benzoxazepin-5-one]"
